Laboratory results taken from patent US5731452A, “7-thiaprostaglandins and method of production thereof” (Teijin Limited, priority 1994, dated 1998).
Each block holds one compound with its values, some of them ahead of it.

Columns and labels:
[1] = system: cell migration induced by MCP-1 in human blood monocytes; experiment: Activity for inhibiting cell migration induced by MCP-1 (human blood monocytes); type: cell-based; conditions: Monocyte, 2 h, 20 ng/ml recombinant human MCP-1, 37° C., two hours
[2] = system: Rat Carotid Artery; experiment: Suppressing thickening of intima after trauma to rat carotid artery endothelium by balloon catheter; type: in vivo, Wistar rat
Method: The test was performed in the following manner in accordance with the method of Clowes et al. (Lab. Invest., 49, 206, 1983). Male Wistar rats of a body weight of 300 to 350 g were used. The neck of each rat was opened under anesthesia by sodium pentobarbitol, then a balloon catheter (Fogarty, 2F) was inserted from the right external carotid artery until the starting portion of the common carotid artery. The balloon was expanded by saline to an extent causing a light resistance, then the catheter was pulled out in that state up to the carotid artery to give trauma to the intima. This procedure was repeated three times, then the catheter was withdrawn and the external carotid artery was ligated. After 14 days, the chest was opened under anesthesia by diethyl ether, refluxing and immobilization were performed from the aorti arch by a Karnoa solution (methanol:chloroform:acetic acid=6:3:1), then the right common carotid artery was excised and immobilized by neutral formalin solution. The immobilized carotid artery was dyed by Elastica van Gieson dye, then the areas of the media and thickened portion of the intima were measured by an image resolution device (LUZEX2D).
(§1) The test compound began to be administered subcutaneously at a rate of 3.2 μg/rat/hr using a miniosmotic pump buried in the back of the rat from three days before the surgery and was continued until 11 days after the surgery. The activity of the test compound in suppressing intima thickening was found from the following formula.

[3] = system: Rabbit Carotid Artery; experiment: Suppressing thickening of intima after trauma to rabbit carotid artery endothelium by balloon catheter; type: in vivo, New Zealand white rabbit
Method: The test was performed in the following manner in accordance with the method of Clowes et al. (Lab. Invest., 49, 206, 1983). Use was made of New Zealand white rabbits (male) of approximately 4 kg body weight. The neck portion of each rabbit was opened under anesthesia by sodium pentobarbitol, then a balloon catheter (Fogarty, 3F) was inserted from the right external carotid artery until the starting portion of the common carotid artery. The balloon was expanded by saline to an extent causing a light resistance, then the catheter was pulled out in that state up to the carotid artery to give trauma to the intima. This procedure was performed once, then the catheter was withdrawn and the external carotid artery was ligated. After 10 days, the chest was opened under anesthesia by pentobarbitol and the right common carotid artery was removed and immobilized by a neutral formalin solution. The immobilized carotid artery was dyed by Elastica van Gieson dye, then the areas of the media and intima were measured by an image resolution device (LUZEX2D).
as §1, with “of 32 μg/rabbit/hr” for “of 3.2 μg/rat/hr”, “the rabbit” for “the rat”, “until 10” for “until 11”, “in inhibiting” for “in suppressing”
Intima thickening suppression rate (%)=(1-T/C)×100

[4] = 32 μg/rabbit/hr s.c. miniosmotic pump, day 10, average ± standard error

- IC50 [1]: 1 nM
Compound: CCCCC(C)CC(O)/C=C/[C@@H]1C(SCCCCCC(=O)OC)=C(OC(=O)CCC)C[C@H]1O (stereo partly shown)

Compound: CCCC[C@@H](C)C[C@H](O)/C=C/[C@@H]1C(SCCCCCC(=O)OC)=C(OC(=O)CCC)C[C@H]1O [Example 2, methyl(11R,12S,13E,15S,17R)-9-butyryloxy-11,15-dihydroxy-17,20-dimethyl-7-thiaprosta-8,13-dienoate]
- thickening of the neointima of the carotid artery (in words) ([2]; 3.2 μg/rat/hr s.c.): suppresses the thickening of the neointima of the carotid artery
- Intima (area) ([2]; 3.2 μg/rat/hr s.c. miniosmotic pump, 3 days before to 11 days after surgery, day 14, average ± standard error, * p < 0.05 vs control): 0.155 mm^2
- Media (area) ([2]; 3.2 μg/rat/hr s.c. miniosmotic pump, day 14, average ± standard error): 0.197 mm^2
- Intima/Media ([2]; 3.2 μg/rat/hr s.c. miniosmotic pump, day 14, average ± standard error, * p < 0.05 vs control): 0.758
- Suppression rate (intima thickening) ([2]; (1-T/C)×100 of Intima/Media, 3.2 μg/rat/hr s.c.): 45.8%
- Intima (area) ([3]; 32 μg/rabbit/hr s.c. miniosmotic pump, 3 days before to 10 days after surgery, day 10, average ± standard error): 0.055 mm^2
- Intima/Media [3, 4]: 0.152
- Media (area) [3, 4]: 0.367 mm^2
- Suppression rate (intima thickening) ([3]; (1-T/C)×100 of Intima/Media, 32 μg/rabbit/hr s.c.): 29.9%
